In one data set the test system is resting heart rate. Put plainly: Effect on resting (basic) heart rate in reserpinized, vagotomized rats (Experiment 3). As to conditions: i.v., cumulative. The data set is classed as in vivo, rat. The procedure:
(§1) The effects of certain compounds on isoproterenol-induced tachycardia as well as on resting heart rate were studied in reserpinized, vagotomized rats. The rat was anaesthetized with pentobarbital 18 hours after treatment with reserpine (8 mg./kg., i.p.) and vagotomized bilaterally in the neck. Heart rate was recorded by a cardiotacho-meter (RT-2, Nihonkoden). After the control response to l-isoproterenol (0.1 μg./kg., i.v.) was obtained, each compound tested was injected intravenously in such doses that the cumulative dose increased four-fold: 0.01-0.04-0.16-0.64-2.56 mg./kg., at 20 minute intervals. Ten minutes after each dose of the compound an intravenous injection of l-isoproterenol (0.1 μg./kg.) was administered and the increase in heart rate was recorded. The dose producing 50% blockade of the positive chronotropic control response to l-isoproterenol (ED-50) was estimated in each experiment from curves obtained by plotting inhibition percentage against log cumulative dose.
abbreviations; ^a) BHR : Basic heart rate (the heart rate just before
administration of l-isoproterenol, unit = beat per minute)

The subject of data set [1] is heart devoid of autonomous nervous control. Put plainly: Direct effect on heart rate of a heart devoid of autonomous nervous control, reserpinized, adrenalectomized, vagotomized rats (Experiment 2). It counts as in vivo, Wistar rats. As to conditions: for Change of heart rate (%): + increase, - decrease. The protocol: Experiment 2 […] Both adrenal glands were removed and bilateral vagotomy in the neck was performed. […] (RM 100). In Table 2, the symbol + represents an increase in heart rate, while the symbol - represents a decrease in heart rate. The standard error is shown in parenthesis.

Data set [2] in a line: Acute intravenous toxicity in white mice. The conditions noted are these: mouse, in vivo, injected intravenously.
In data set [3] the target is T1, adrenergic β-receptor (Rattus norvegicus, UniProt P18090).
T1 construct: studied in reserpinized, vagotomized rats; from tissue; host or cells: heart in the living, anaesthetized rat (in vivo heart rate)
Kind of data set: Blockade of isoproterenol-induced tachycardia in reserpinized, vagotomized rats (Experiment 3). As to conditions: for Res: Response (percent increase of heart rate induced by 0.1 μg/kg l-isoproterenol): i.v., cumulative, Control = 100; for ED50: rat, iv, read-out: ED50 (dose producing 50% blockade of the positive chronotropic control response to l-isoproterenol). The data set is classed as in vivo. The procedure: as §1, with “After the control response to l-isoproterenol (0.1 μg./kg., i.v.) was obtained, each compound tested was injected intravenously in such doses that the cumulative dose increased four-fold: 0.01-0.04-0.16-0.64-2.56 mg./kg., at 20 minute intervals.” left out

Data set [4] has as its target T2, adrenergic β-receptor (Cavia porcellus, UniProt H0W3H1).
T2 construct: The atria obtained from a male Hartley guinea pig; from tissue; host or cells: isolated atria of male Hartley guinea pig
Kind of data set: Antagonism of l-isoproterenol-induced increase of atrial contraction, isolated guinea pig atria (Experiment 1). Also on record: species or system male Hartley guinea pig. The conditions noted are these: l-isoproterenol 5 × 10^-8 g./ml., 10 minutes previously. The procedure: The atria obtained from a male Hartley guinea pig weighing 300-500 g. were trimmed and placed in chambers containing Tyrode solution oxygenated with 95% oxygen and 5% carbon dioxide and maintained at 30° C.
Contractile force was recorded by an isometric lever connected to a strain gauge tension transducer. Antagonistic activity of the tested drugs on the 1-isoproterenol-induced increase of the atrial contraction was investigated.
The first control response was measured adding 1-isoproterenol to the bath fluid to a final concentration of 5 × 10^-8 g./ml. Then the preparation was washed and the same procedure was repeated after application of the drugs to be tested, i.e. 4-(3-isopropylamino-2-hydroxypropoxy)indene and 4-(3-isopropylamino-2-hydroxypropoxy)indane (final concentrations of 8 × 10^-9 g./ml. and 5 × 10^-8 g./ml.), 10 minutes previously.

The mark [5] stands for this setting: 0.01 mg./kg. i.v., 1 minute after.
[6] abbreviates: 0.01 mg./kg. i.v., 5 minutes after.
[7] abbreviates: 0.01 mg./kg. i.v., 15 minutes after.
The mark [8] stands for this setting: 0.01 mg./kg. i.v., 30 minutes after.
The mark [9] stands for this setting: 0.05 mg./kg. i.v., 1 minute after.
Where [10] appears, read: 0.05 mg./kg. i.v., 5 minutes after.
The mark [11] stands for this setting: 0.05 mg./kg. i.v., 15 minutes after.
The mark [12] stands for this setting: 0.05 mg./kg. i.v., 30 minutes after.
Where [13] appears, read: 0.10 mg./kg. i.v., 1 minute after.
[14] abbreviates: 0.10 mg./kg. i.v., 5 minutes after.
Setting [15] is: 0.10 mg./kg. i.v., 15 minutes after.
Where [16] appears, read: 0.10 mg./kg. i.v., 30 minutes after.
[17] abbreviates: cumulative dose, l-isoproterenol 0.1 μg./kg. i.v., ± standard error.
Setting [18] is: final concentration 5 × 10^-8 g./ml.
[19] abbreviates: final concentration 8 × 10^-9 g./ml.

Where two headings read alike, the source gives them in different places.

T2 sequence (H0W3H1 1-470): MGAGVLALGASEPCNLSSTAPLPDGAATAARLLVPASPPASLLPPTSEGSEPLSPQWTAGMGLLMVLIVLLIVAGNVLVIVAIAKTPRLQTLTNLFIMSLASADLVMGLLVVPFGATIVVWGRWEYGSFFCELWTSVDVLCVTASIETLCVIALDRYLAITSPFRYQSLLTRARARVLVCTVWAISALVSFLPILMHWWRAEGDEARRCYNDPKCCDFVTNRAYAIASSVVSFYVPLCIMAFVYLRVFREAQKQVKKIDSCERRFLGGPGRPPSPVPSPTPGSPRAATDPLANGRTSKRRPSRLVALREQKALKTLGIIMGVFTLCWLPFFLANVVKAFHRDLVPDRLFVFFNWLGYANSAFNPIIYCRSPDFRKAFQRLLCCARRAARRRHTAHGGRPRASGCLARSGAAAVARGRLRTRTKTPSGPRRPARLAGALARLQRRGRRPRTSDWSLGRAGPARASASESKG
T1 sequence (P18090 whole entry): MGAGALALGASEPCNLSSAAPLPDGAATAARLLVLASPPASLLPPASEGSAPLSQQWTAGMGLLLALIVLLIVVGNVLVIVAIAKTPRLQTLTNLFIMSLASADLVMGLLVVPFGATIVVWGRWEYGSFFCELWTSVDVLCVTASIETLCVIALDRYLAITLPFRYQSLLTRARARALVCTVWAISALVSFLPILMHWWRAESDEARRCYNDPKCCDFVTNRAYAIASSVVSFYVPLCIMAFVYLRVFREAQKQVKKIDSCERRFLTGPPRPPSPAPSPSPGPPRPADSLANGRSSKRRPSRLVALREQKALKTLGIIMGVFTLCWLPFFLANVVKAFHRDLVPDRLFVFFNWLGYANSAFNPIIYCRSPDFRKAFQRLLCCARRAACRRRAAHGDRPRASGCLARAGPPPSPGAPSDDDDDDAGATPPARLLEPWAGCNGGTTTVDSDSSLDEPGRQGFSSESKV

As a reminder, the LD50 is the dose at which mortality reaches 50%. Higher therefore signals lower toxicity. A word on the ED50: it is the midpoint of the dose-response relation. Regarding `CC(C)NCC(O)COc1cccc2c1C=CC2` (racemic) [4-(3-isopropylamino-2-hydroxypropoxy)indene], the “BHR: Basic heart rate (just before administration of l-isoproterenol)” value (from here on “BHR: Basic heart rate”) with resting heart rate (0.01 mg/kg) is reported as 235±12 beat per minute; in the data set with resting heart rate (0.04 mg/kg), 246±13 beat per minute; with resting heart rate (0.16 mg/kg), 245±14 beat per minute; with resting heart rate (0.64 mg/kg), 245±12 beat per minute. The “Change of heart rate (%)” value is “+2.4%” in data set [1] (setting [5]); “+3.8%” in data set [1] (setting [6]); “+3.2%” in data set [1] (setting [7]); “+1.7%” in data set [1] (setting [8]); “+5.6%” in data set [1] (setting [9]); “+8.4%” in data set [1] (setting [10]). In addition, the “Change of heart rate (%)” value was “+8.7%” in data set [1] (setting [11]); “+5.2%” in data set [1] (setting [12]); “+1.5%” in data set [1] (setting [13]); “+4.1%” in data set [1] (setting [14]); “+3.5%” in data set [1] (setting [15]); “+4.0%” in data set [1] (setting [16]). In data set [2], this compound displayed an LD50 of 25 mg/kg. The “Res: Response (percent increase of heart rate induced by 0.1 μg/kg l-isoproterenol)” value on adrenergic β-receptor [3] (0.01 mg/kg) is listed as 74±3%; on adrenergic β-receptor [3] (0.04 mg/kg), 50±2%; at adrenergic β-receptor [3] (0.16 mg/kg), 23±2%; on adrenergic β-receptor [3] (0.64 mg/kg), 5±1%. In addition, the median effective dose (ED50) on adrenergic β-receptor [3] (setting [17]) came out at 0.039 ± 0.002 mg/kg. The results for the “Inhibition rate (%)” value on adrenergic β-receptor [4] (setting [18]) and at adrenergic β-receptor [4] (setting [19]) were 81.5% and 30.7%, respectively.
On to `CC(C)NCC(O)COc1cccc2c1CCC2` (stereo not drawn) [4-(3-isopropylamino-2-hydroxypropoxy)indane], for which the “BHR: Basic heart rate” value is recorded as 245±15 beat per minute in the data set on resting heart rate (0.04 mg/kg), 236±14 beat per minute with resting heart rate (0.16 mg/kg) and 238±17 beat per minute with resting heart rate (0.64 mg/kg). The “Change of heart rate (%)” value in data set [1] (setting [5]) is recorded as -0.9%; in data set [1] (setting [6]), “+0.3%”; in data set [1] (setting [7]), -1.9%; in data set [1] (setting [8]), -1.7%; in data set [1] (setting [9]), -2.1%; in data set [1] (setting [10]), -2.0%. The “Change of heart rate (%)” value in data set [1] (setting [11]) is reported as -2.0%; in data set [1] (setting [12]) it was -4.6%; in data set [1] (setting [13]), -5.9%; in data set [1] (setting [14]), -8.7%; in data set [1] (setting [15]), -8.7%; in data set [1] (setting [16]), -5.4%. Also, the “effect on the cardiac function (in words)” value in data set [1] (Experiment 2) is recorded as “deleterious effects on the cardiac function”. For the same compound, the “Res: Response (percent increase of heart rate induced by 0.1 μg/kg l-isoproterenol)” value on adrenergic β-receptor [3] (0.04 mg/kg) came out at 54±5%; on adrenergic β-receptor [3] (0.16 mg/kg) it was 33±14%; on adrenergic β-receptor [3] (0.64 mg/kg), 12±1%. Further, the ED50 on adrenergic β-receptor [3] (setting [17]) is 0.065 ± 0.013 mg/kg. For the same compound, the “Inhibition rate (%)” value is recorded as 88.4% at adrenergic β-receptor [4] (setting [18]) and 30.4% at adrenergic β-receptor [4] (setting [19]).
On to `CCC(C)NCC(O)COc1cccc2c1C=CC2` (stereo not drawn) [4-(3-sec-butylamino-2-hydroxypropoxy)indene], for which the “BHR: Basic heart rate” value is given as 200±13 beat per minute in the data set on resting heart rate (0.01 mg/kg); 218±13 beat per minute in the data set with resting heart rate (0.04 mg/kg); 225±14 beat per minute with resting heart rate (0.16 mg/kg); 236±16 beat per minute in the data set on resting heart rate (0.64 mg/kg); 228±23 beat per minute in the data set with resting heart rate (2.56 mg/kg). The “Res: Response (percent increase of heart rate induced by 0.1 μg/kg l-isoproterenol)” value at adrenergic β-receptor [3] (0.01 mg/kg) is 81±4%; on adrenergic β-receptor [3] (0.04 mg/kg), 65±1%; on adrenergic β-receptor [3] (0.16 mg/kg) it was 40±5%; at adrenergic β-receptor [3] (0.64 mg/kg), 17±3%; at adrenergic β-receptor [3] (2.56 mg/kg) it was 6±1%. For the same compound, the ED50 on adrenergic β-receptor [3] (setting [17]) came to 0.088 ± 0.011 mg/kg.
Take `C=CCc1ccccc1OCC(O)CNC(C)C` (stereo not drawn) [alprenolol (Aptin), alprenolol, reference compound]: the “BHR: Basic heart rate” value in the data set on resting heart rate (0.01 mg/kg) is 233±12 beat per minute; with resting heart rate (0.04 mg/kg), 247±11 beat per minute; in the data set with resting heart rate (0.16 mg/kg), 261±7 beat per minute; in the data set on resting heart rate (0.64 mg/kg), 262±4 beat per minute. In addition, the “Res: Response (percent increase of heart rate induced by 0.1 μg/kg l-isoproterenol)” value on adrenergic β-receptor [3] (0.01 mg/kg) came to 65±3%; at adrenergic β-receptor [3] (0.04 mg/kg), 44±3%; on adrenergic β-receptor [3] (0.16 mg/kg), 17±3%; at adrenergic β-receptor [3] (0.64 mg/kg), 3±1%. For the same compound, the ED50 on adrenergic β-receptor [3] was 0.03 ± 0.003 mg/kg.
